{"source": "patent US7582620B2", "about": "“Use of mannan from saccharomyces cerevisiae for the treatment of asthma” (The University of Tennessee Foundation, priority 2003, dated 2009)", "key": {"[1]": {"tested_on": "bovine airway smooth muscle cells", "format": "cell-based", "method": "(§1) Cell counts and cytotoxicity are assessed by tetrazolium salt reduction (MTT) […] assay in parallel experiments. Millipore filtered MTT (5 mg/ml, Sigma Chemical Co., St Louis, Mo.) dissolved in phosphate buffered saline (PBS, pH 7.2) is added to the microtiter wells (10 μl/well, 20 μl/16 mm well) at the end of the experimental period. After incubating at 37° C. for 4 h, media is removed from the microtiter wells and acidified with 0.04 M HCl. 2-propane/isopropanol is added to the wells at 200 μl/well or 400 μl/16 mm well for human airway smooth muscle cells. The plates are left at room temperature for 30 min and optical density is obtained by an ELISA reader (EL340 Microplate, Bio-Tek instruments, Winooski, Vt.) at 570 nm wave length. The results obtained by MTT assay correlate well with the viable cell counts obtained by the Trypan blue method using hemocytometer (Sigma cell count instruction manual). Cytotoxicity also is measured by LDH assays (Sigma). Release of LDH greater than 5% is considered cytotoxic.\nAntisense human airway smooth muscle cell mannose receptor morpholino DNA oligonucleotides (M-oligos, 25 mer, 5 μM) delivered by the scrape method inhibited b hexosaminidase-induced mitogenesis in bovine ASMC by 37% compared to no inhibition by sense M-oligos (data not shown). […]"}, "[2]": {"tested_on": "human airway smooth muscle cells", "assay": "Mitogenic effect of growth factors in human airway smooth muscle cells (MTT)", "format": "cell-based", "details": "for mitogenic response after repeated passages: human ASMC of the same batch, p10", "method": "as §1\n[…] Cells were stimulated with Hex A (50 nM), PDGF (0.1 nM), EGF (100 nM), bFGF (5 nM), thrombin (Thr, 1 unit/ml), FBS (5% vol/vol), or vehicle (V; PBS for Hex; 0.1% BSA in 4 mM HCl for PDGF; 0.1% BSA for EGF and bFGF; unstimulated for Thr and FBS). Viable cell numbers were assessed by MTT assays after 42 h stimulation. […] Experiments were repeated three times."}, "[3]": {"tested_on": "human airway smooth muscle cells", "assay": "Hex A-induced mitogenesis in human airway smooth muscle cells (MTT)", "format": "cell-based", "details": "mannan 0.1-1 mg/ml 30 min before 50 nM Hex A, 42 h, human ASMC", "method": "as §1\n(§2) Human airway smooth muscle cells in 24-well plates were starved for 18h in medium containing 0.1% FBS. Mannan in concentrations ranging from 0.1-1 mg/ml (Sigma) was added to the cells 30 min prior to the addition of 50 nM Hex A, 0.1 nM PDGF or vehicle (PBS for Hex or 0.1% BSA in 4 mM HCl for PDGF). Viable cell numbers were assessed by MTT assays after 42h stimulation. […]"}, "[4]": {"tested_on": "bovine airway smooth muscle cells", "assay": "Hex A-induced mitogenesis in bovine airway smooth muscle cells", "format": "cell-based", "details": "bovine ASMC", "method": "Measurement of ^3H-thymidine incorporation as an assessment of the rate of DNA synthesis is performed as described previously (Lew et al., 1994) with a modification. After the cells reach confluency and contact-inhibited in microtiter wells (16 mm wells for human airway smooth muscle cells), the medium is replaced with medium M199 (Cellgro, Mediatech, Washington D.C.) or SmBM (for huASMC) containing 0.1% vol/vol fetal bovine serum (FBS, Hyclone Lab. Inc., Logan, Utah) 48 h before exposure to test substances. ^3H-thymidine (0.5 μCi/well or 2.5 μC/16 mm well, sp act 10 Ci/mmol, Amersham Corp., Arlington Heights, Ill.) is added to the cells 18 h after the addition of test substances and cells are harvested 18 h later. Radioactivity is quantified in a liquid scintillation counter (2000 CA; Packard Instrument Co., Downers Grove, Ill.). Experiments are performed in quadruplicate and repeated 3 times.\nMannan, a polymer of mannose, is a specific mannose receptor blocker."}, "[5]": {"tested_on": "human airway smooth muscle cells", "assay": "PDGF-induced mitogenesis in human airway smooth muscle cells (MTT)", "format": "cell-based", "details": "mannan 0.1-1 mg/ml 30 min before 0.1 nM PDGF, 42 h, human ASMC", "method": "as §1, §2"}, "[6]": {"tested_on": "TNFα secretion, Hex secretion in BAL fluids", "assay": "TNFα and Hex secretion in BAL fluids, OVA-sensitized murine model", "format": "in vivo, mouse", "details": "aerosolized mannan pretreatment, day 31", "method": "The activities of Hex are determined as previously described (Lew et al., 1991). Samples (50 μl) are incubated with 100 μl of pre-warmed buffered substrate (5 mM p-nitrophenyl-2-deoxy-β-D-glucosaminide in 0.1 M citrate/phoshate buffer, pH 4.5) in 96-well microtirter plates for 1 h at 37° C. After incubation, the reactions are stopped by the addition of 100 μl of 0.5 M boric acid/NaOH buffer, pH 10.6. p-nitrophenol released by the hydrolytic activity is quantified spectrophotometrically by using a Biotek ELISA reader at 405 nm wave length. The Beer-Lambert Law and molecular extinction coefficient for p-nitrophenol (E=18,700) are applied to obtain units of specific activity expressed as micromoles of substrate cleaved/h/10^6 cells. Purified Hex (Sigma) is tested in each assay as a positive internal control.\nImmediately after measuring MCh responsiveness, animals are anesthetized with Ketamine/Xylazine at 50/50 mg/kg and lungs are lavaged once via tracheal tube with 1 ml phosphate buffered saline (PBS, 37° C.). The broncho alveolar lavage_fluid is analyzed for Hex activity and differential cell count. Hex activity in broncho alveolar lavage_fluids is 262±33 μmoles/hr in immunized mice versus 92±12 in non-immunized mice.\nExperiments were performed in quadruplicate and repeated four times.\nHistopathology and immunohistology were performed on lungs and airways."}, "[7]": {"tested_on": "OVA-sensitized and -challenged mice", "assay": "Histopathology of trachea and lung, OVA-sensitized murine model", "format": "in vivo, mouse"}, "[8]": {"tested_on": "OVA-sensitized wild type FVB/N mice", "description": "Enhanced pause (Penh) is measured using the software provided by the manufacturer.\nWild type FVB/N mice, ages 6-8 weeks, were immunized with ovalbumin (20 μg in Imject®-Alum, i.p.) on days 0, 14, 21 as described in Example 6. Non-immunized mice received i.p. injection of Alum only. Thirty minutes before each of the three ovalbumin challenges on days 28-30, the mice were pretreated via aerosol with 100 or 300 mg yeast mannan in 2 ml dH2O or 5 EU E. Coli endotoxin (Sigma Chemical Co., St Louis, Mo.) in 2 ml saline. Experiments were performed in quadruplicate and repeated four times.\nMeasurements of airway hyper-reactivity (AHR) and broncho alveolar lavage were performed on day 31.\nMethacholine sensitivity and reactivity were measured by Penh parameter in spontaneously breathing animals on day 31 (FIG. 9)."}, "[9]": {"tested_on": "naive wild type FVB/N mice", "assay": "Airway hyperreactivity after aerosolized Hex in naive mice (methacholine challenge, Penh)", "format": "in vivo, mouse", "details": "aerosolized human Hex A 1 mg every other day for 2 weeks, day 15", "method": "Six week old FVB/N mice were treated with aerosolized human Hex A (1 mg) or vehicle (PBS) every other day for 2 weeks. On day 15, lung physiology was non-invasively assessed by methacholine (Mch) challenge and changes in pulmonary resistance (pause enhancement, Penh)."}}, "data": [{"molecule": "Ethoxylated polyethylenimine [EPEI]", "values": [{"measurement": "concentration beyond which the delivery system was cytotoxic", "setting": "[1]", "result": "> 3", "unit": "μl/ml"}]}, {"molecule": "PDGF [reference compound]", "values": [{"measurement": "mitogenic response after repeated passages", "setting": "[2]", "result": "responded poorly"}]}, {"molecule": "mannan", "values": [{"measurement": "inhibition of Hex A-induced mitogenesis", "setting": "[3]", "result": "inhibited by mannan in a concentration dependent manner"}, {"measurement": "inhibition of Hex A-induced mitogenesis", "setting": "[4]", "result": "inhibited by mannan in a concentration dependent manner"}, {"measurement": "inhibitory effect on PDGF-induced mitogenesis", "setting": "[5]", "result": "lack of inhibitory effect"}, {"measurement": "induction of Hex secretion in BAL fluids", "setting": "[6]", "result": "did not induce"}, {"measurement": "inhibition of TNFα secretion in BAL fluids", "setting": "[6]", "result": "85-100%"}, {"measurement": "trachea histology (H&E): trachealis muscle and epithelial layer", "setting": "[7]; aerosolized mannan 300 mg", "result": "Trachealis muscle has normal appearance and the epithelial layer is intact"}, {"measurement": "peribronchiolar cellular infiltration (H&E, lung)", "setting": "[7]; mannan 300 mg pretreated mouse", "result": "marked decrease in peribronchiolar cellular infiltration in 3 out of 4 bronchioles"}, {"measurement": "effect on OVA-induced airway hyper-reactivity (Penh)", "setting": "[8]; aerosol 30 min before each OVA challenge on days 28-30 (mannan 100 or 300 mg, endotoxin 5 EU), measured on day 31", "result": "Blocks Airway Hyper-Reactivity"}, {"measurement": "duration of the inhibitory effect", "setting": "[8]; after the last dose of aerosolized yeast mannan", "result": "at least four"}, {"measurement": "general condition of the treated mice", "setting": "[8]; mouse, in vivo", "result": "remained healthy and active"}]}, {"molecule": "thrombin [reference compound]", "values": [{"measurement": "mitogenic response after repeated passages", "setting": "[2]", "result": "responded poorly"}]}, {"molecule": "Hex A: human placental b hexosaminidase A (Sigma), lysosomal hydrolase, mannosyl-rich ligand of ASM-MR (protein) chain 1: TLEKNVLVVSVVTPGCNQLPTLESVENYTLTINDDQCLLLSETVWGALRGLETFSQLVWKSAEGTFFINKTEIEDFPRFPHRGLLLDTSRHYLPLSSILDTLDVMAYNKLNVFHWHLVDDPSFPYESFTFPELMRKGSYNPVTHIYTAQDVKEVIEYARLRGIRVLAEFDTPGHTLSWGPGIPGLLTPCYSGSEPSGTFGPVNPSLNNTYEFMSTFFLEVSSVFPDFYLHLGGDEVDFTCWKSNPEIQDFMRKKGFGEDFKQLESFYIQTLLDIVSSYGKGYVVWQEVFDNKVKIQPDTIIQVWREDIPVNYMKELELVTKAGFRALLSAPWYLNRISYGPDWKDFYIVEPLAFEGTPEQKALVIGGEACMWGEYVDNTNLVPRLWPRAGAVAERLWSNKLTSDLTFAYERLSHFRCELLRRGVQAQPLNVGFCEQEFEQT chain 2: TQVQQLLVSITLQSECDAFPNISSDESYTLLVKEPVAVLKANRVWGALRGLETFSQLVYQDSYGTFTINESTIIDSPRFSHRGILIDTSRHYLPVKIILKTLDAMAFNKFNVLHWHIVDDQSFPYQSITFPELSNKGSYSLSHVYTPNDVRMVIEYARLRGIRVLPEFDTPGHTLSWGKGQKDLLTPCYSRQNKLDSFGPINPTLNTTYSFLTTFFKEISEVFPDQFIHLGGDEVEFKCWESNPKIQDFMRQKGFGTDFKKLESFYIQKVLDIIATINKGSIVWQEVFDDKAKLAPGTIVEVWKDSAYPEELSRVTASGFPVILSAPWYLDLISYGQDWRKYYKVEPLDFGGTQKQKQLFIGGEACLWGEYVDATNLTPRLWPRASAVGERLWSSKDVRDMDDAYDRLTRHRCRMVERGIAAQPLYAGYCNHENM", "values": [{"measurement": "airway hyperreactivity (Penh, methacholine challenge)", "setting": "[9]", "result": "increased airway hyperreactivity"}, {"measurement": "mitogenic effect (viable cell numbers, MTT)", "setting": "[2]; Hex A 50 nM, 42 h stimulation, serum-starved cells, passage #5", "result": "comparable to that of PDGF and fetal bovine serum"}, {"measurement": "mitogenic response after repeated passages", "setting": "[2]", "result": "responded poorly"}]}]}
